Laboratory results taken from US20150344502A1, “CEPHEM COMPOUND” (SHIONOGI & CO., LTD., priority 2012, published 2015).
≈ marks a conversion by molar mass, not a printed value.

How the values were obtained:
Assay type in all cases: cell-based
A. baumannii 1484820 = assay: MIC, broth microdilution (CLSI), A. baumannii 1484820; conditions: Acinetobacter baumannii, 5×10^5 cfu/mL, cation-adjusted Iso-Sensitest broth containing human Apo-transferrin, read-out: Minimum Inhibitory Concentration (MIC)
Description: (§1) Compound (I) of the present invention was evaluated for in vitro antimicrobial activity thereof.
(§2) Measurement of Minimum Inhibitory Concentration (MIC: μg/mL) was conducted according to CLSI (Clinical and Laboratory Standards Institute) method, and the amount of bacteria for inoculation was 5×10^5 cfu/mL, and cation-adjusted Iso-Sensitest broth containing human Apo-transferrin was used as a test medium, and the experiment was conducted using broth microdilution method.

E. Coli ATCC BAA-196 = assay: MIC, broth microdilution (CLSI), E. Coli ATCC BAA-196; conditions: Escherichia coli, ATCCBAA196; E. Coli ATCC BAA-196, TEM-10, ESBL producing strain; 5×10^5 cfu/mL; cation-adjusted Iso-Sensitest broth containing human Apo-transferrin; read-out: Minimum Inhibitory Concentration (MIC)
Description: as §1, §2

P. aeruginosa 378057 = assay: MIC, broth microdilution (CLSI), P. aeruginosa 378057; conditions: Pseudomonas aeruginosa, 5×10^5 cfu/mL, cation-adjusted Iso-Sensitest broth containing human Apo-transferrin, read-out: Minimum Inhibitory Concentration (MIC)
Description: as §1, §2

E. cloacae 1481026 = assay: MIC, broth microdilution (CLSI), E. cloacae 1481026; conditions: Enterobacter cloacae, 5×10^5 cfu/mL, cation-adjusted Iso-Sensitest broth containing human Apo-transferrin, read-out: Minimum Inhibitory Concentration (MIC)
Description: as §1, §2

E. Coli ATCC BAA-200 = assay: MIC, broth microdilution (CLSI), E. Coli ATCC BAA-200; conditions: Escherichia coli, ATCCBAA200; E. Coli ATCC BAA-200, SHV-4, ESBL producing strain; 5×10^5 cfu/mL; cation-adjusted Iso-Sensitest broth containing human Apo-transferrin; read-out: Minimum Inhibitory Concentration (MIC)
Description: as §1, §2

SMILES	MIC (A. baumannii 1484820) [µg/mL]	MIC (E. Coli ATCC BAA-196) [µg/mL]	MIC (P. aeruginosa 378057) [µg/mL]	MIC (E. cloacae 1481026) [µg/mL]	MIC (E. Coli ATCC BAA-200) [µg/mL]
CC[N+](CC)(CCN1C(=O)c2ccc(O)c(O)c2C1=O)CC1=C(C(=O)[O-])N2C(=O)[C@@H](NC(=O)/C(=N\O[C@@H](CC(=O)[O-])C(=O)[O-])c3csc(N)n3)[C@H]2SC1.[Na+].[Na+] [Compound I-18]	0.25	0.063	≤ 0.031	0.5	0.063
CC(C)(O/N=C(\C(=O)N[C@@H]1C(=O)N2C(C(=O)O)=C(C[N+]34CCC(CN5C(=O)c6ccc(O)c(O)c6C5=O)(CC3)CC4)CS[C@H]12)c1csc(N)n1)C(=O)[O-] [Compound I-5]	1 (≈ 1.3 µM)	0.25 (≈ 0.325 µM)	≤ 0.031	16 (≈ 20.8 µM)	0.25 (≈ 0.325 µM)
CC[N+](CC)(CCN1C(=O)c2ccc(O)c(O)c2C1=O)CC1=C(C(=O)[O-])N2C(=O)[C@@H](NC(=O)/C(=N\OC(C)(C)C(=O)[O-])c3csc(N)n3)[C@H]2SC1.[Na+] [Compound I-17]	0.5	0.063	≤ 0.031	0.5	0.063
CC[N+](CC)(CCN1C(=O)c2ccc(O)c(O)c2C1=O)CC1=C(c2nn[nH]n2)N2C(=O)[C@@H](NC(=O)/C(=N\OC(C)(C)C(=O)O)c3csc(N)n3)[C@H]2SC1.[Na+] [Compound I-19]	0.25	0.063	≤ 0.031	0.5	0.063
CC(C)(O/N=C(\C(=O)N[C@@H]1C(=O)N2C(C(=O)[O-])=C(C[N+]34CCC(Cn5ncc6cc(O)c(O)cc6c5=O)(CC3)C4)CS[C@H]12)c1csc(N)n1)C(=O)[O-].[Na+] [Compound I-22]	1	≤ 0.031	≤ 0.031	1	0.125
CC(C)(O/N=C(\C(=O)N[C@@H]1C(=O)N2C(c3nnn[nH]3)=C(C[N+]3(CCN4C(=O)c5ccc(O)c(O)c5C4=O)CCCC3)CS[C@H]12)c1nc(N)sc1Cl)C(=O)[O-] [Compound I-14]	0.125 (≈ 0.156 µM)	≤ 0.031	≤ 0.031	0.5 (≈ 0.623 µM)	0.063 (≈ 0.0785 µM)
CC(C)(O/N=C(\C(=O)N[C@@H]1C(=O)N2C(C(=O)[O-])=C(C[N+]34CCC(CNC(=O)C(=O)c5cc(O)c(O)c(F)c5)(CC3)CC4)CS[C@H]12)c1csc(N)n1)C(=O)[O-].[Na+] [Compound I-20]	4	0.063	≤ 0.031	2	0.25

Second part, the compound after the results:

MIC (A. baumannii 1484820) [µg/mL]	MIC (E. Coli ATCC BAA-196) [µg/mL]	MIC (P. aeruginosa 378057) [µg/mL]	MIC (E. cloacae 1481026) [µg/mL]	MIC (E. Coli ATCC BAA-200) [µg/mL]	SMILES
0.25 (≈ 0.321 µM)	0.125 (≈ 0.161 µM)	0.063 (≈ 0.081 µM)		0.125 (≈ 0.161 µM)	CC(C)(O/N=C(\C(=O)N[C@@H]1C(=O)N2C(C(=O)O)=C(C[N+]3(CCN4C(=O)c5c(Cl)cc(O)c(O)c5C4=O)CCCC3)CS[C@H]12)c1csc(N)n1)C(=O)[O-] [Compound I-3]
0.25 (≈ 0.33 µM)	0.063 (≈ 0.0831 µM)	≤ 0.031	0.5 (≈ 0.66 µM)	0.125 (≈ 0.165 µM)	CC(C)(O/N=C(\C(=O)N[C@@H]1C(=O)N2C(C(=O)O)=C(C[N+]3(CCN4C(=O)c5ccc(O)c(O)c5C4=O)CCCCC3)CS[C@H]12)c1csc(N)n1)C(=O)[O-] [Compound I-7]
0.25	0.125	0.063	0.5	0.125	CC(C)(O/N=C(\C(=O)N[C@@H]1C(=O)N2C(c3nnn[n-]3)=C(C[N+]3(CCN4C(=O)c5ccc(O)c(O)c5C4=O)CCCCC3)CS[C@H]12)c1csc(N)n1)C(=O)[O-].[Na+] [Compound I-15]
0.5 (≈ 0.713 µM)	0.125 (≈ 0.178 µM)	0.063 (≈ 0.0898 µM)	4 (≈ 5.7 µM)	0.25 (≈ 0.356 µM)	CC(C)(O/N=C(\C(=O)N[C@@H]1C(=O)N2C(C(=O)O)=C(C[N+]3(Cc4noc5cc(O)c(O)cc45)CCCC3)CS[C@H]12)c1csc(N)n1)C(=O)[O-] [Compound I-9]
0.063 (≈ 0.0821 µM)	0.063 (≈ 0.0821 µM)	≤ 0.031	0.5 (≈ 0.651 µM)	0.125 (≈ 0.163 µM)	CC(C)(O/N=C(\C(=O)N[C@@H]1C(=O)N2C(c3nnn[nH]3)=C(C[N+]3(CCN4C(=O)c5ccc(O)c(O)c5C4=O)CCCC3)CS[C@H]12)c1csc(N)n1)C(=O)[O-] [Compound I-11]
